# Patent US20040258668A1 (priority 2001, published 2004)
# Read-outs that look alike come from different tables or passages of the source.
# How the values were obtained:
# [1] = tested on: LLC-MK2 cells infected with SeV18+SEAP/ΔF-GFP; assay: LDH release (cell damage) from SeV-infected LLC-MK2 cells; conditions: for cell damage (LDH release): agents added two days after infection, at the concentration tested
# Description: (§1) LLC-MK2 (monkey kidney-derived cells) were seeded into 6-well plates at a concentration of 5×10^5 cells/well, and then cultured in MEM (Gibco-BRL, Rockville, Md.) media containing 10% fetal bovine serum (FBS: BioWhittaker, Walkersville, Md.) at 37° C. for 24 hours in a 5% CO2 incubator. Cells were washed with PBS and infected with F-deleted SeV encoding secretion-type alkaline phosphatase (SEAP)) and green fluorescence protein (GFP) genes (SeV18+SEAP/ΔF-GFP: FIG. 1) at MOI=3. […] After infection, cell culture was continued in MEM media without serum. […] Media from each culture was collected and subsequently replaced with fresh media containing the same content every two days. Heme agglutination activity (HA activity) was measured as an indicator of virion formation; lactose dehydrogenase (LDH) quantification was measured as an indicator of cell damage; and SEAP activity was measured as an indicator of the expression level of genes carried on the vector.
# (§2) HA activity was measured using the method described by Kato et al., (Kato, A. et al. , Genes Cells 1, 569-579 (1996)). That is, virus-containing media was subjected to two-fold serial dilution in a 96 round bottom well plate, such that each well contained 50 ul samples. A 50 ul solution of preserved chicken blood (COSMO BIO Co., Ltd., Tokyo, Japan), diluted to 1% with PBS, was added to each well and mixed. The mixture was incubated at 4° C. for one hour. Agglutination of red blood cells was observed, and HA activity was calculated by selecting the highest virus dilution in which agglutination was still observed. Additionally, 1 HA U was considered to be equal to 1×10^6 viruses, and values were shown as a number of viruses. […] LDH quantification was conducted using a Cytotoxicity Detection Kit (Roche, Basel, Switzerland) according to the methodin the kit. […] SEAP activities were measured using a Reporter Assay Kit-SEAP (TOYOBO, Osaka, Japan) according to kit method.
# (§3) That is, LLC-MK2 was plated in a 6-well plate at a concentration of 5×10^5 cells/well, and incubated in MEM media containing 10% fetal bovine serum at 37° C. for 24 hours in a 5% CO2 incubator. […] After infection, culture was continued in MEM media without serum. […] Cultured media was recovered every two days, and at this time fresh media, either with or without 5 mM aspirin, was added. The cultures were treated with aspirin for either 0, 2, 4, 6, or 8 days, and then examined. The recovered culture media was analyzed for HA activity, LDH quantification, and SEAP activity. GFP expression and cell damage were also periodically examined using fluorescence microscopy.
# (§4) The experiment was conducted as described in Example 1: LLC-MK2 was plated onto a 6-well plate at a concentration of 5×10^5 cells/well, and incubated in MEM media containing 10% fetal bovine serum at 37° C. for 24 hours in a 5% CO2 incubator. […] After infection, cells were cultured in MEM media without serum for two days, then cultured in MEM media (without serum) containing agents at the recorded concentrations. Cultured media was collected every two days and replaced with a same volume of fresh media. HA activity analysis and LDH quantitative analysis were performed on recovered culture media. GFP expression and cell damage were also periodically examined using fluorescence microscopy.
# [2] = tested on: Sendai virus (SeV) vector SeV18+SEAP/ΔF-GFP; assay: HA activity (virion formation) in culture media of SeV-infected LLC-MK2 cells; conditions: for SeV transcription and replication (HA activity): agents added two days after infection, SeV18+SEAP/ΔF-GFP or SeV18+/ΔF-GFP, MOI=3; for SeV transcription and replication with NO-associated agents: agent added two days after infection
# Description: as §1, §2, §3, §4
# Cytomegarovirus = conditions: Albrecht et al. (1987); cited from earlier work
# [3] = tested on: SEAP gene carried on SeV18+SEAP/ΔF-GFP
# Description: LLC-MK2 (monkey kidney-derived cells) were seeded into 6-well plates at a concentration of 5×10^5 cells/well, and then cultured in MEM (Gibco-BRL, Rockville, Md.) media containing 10% fetal bovine serum (FBS: BioWhittaker, Walkersville, Md.) at 37° C. for 24 hours in a 5% CO2 incubator. Cells were washed with PBS and infected with F-deleted SeV encoding secretion-type alkaline phosphatase (SEAP)) and green fluorescence protein (GFP) genes (SeV18+SEAP/ΔF-GFP: FIG. 1) at MOI=3. […] After infection, cell culture was continued in MEM media without serum. Two days after infection, the media was replaced with MEM media (without serum) containing 0.625, 1.25, 2.5, and 5 mM of aspirin, or no aspirin. Media from each culture was collected and subsequently replaced with fresh media containing the same content every two days.
# SEAP activities were measured using a Reporter Assay Kit-SEAP (TOYOBO, Osaka, Japan) according to kit method.
# [4] = Aspirin toxicity (LD50, estimated toxicity limit); assay type: in vivo; conditions: ⅙ of LD50
# [5] = tested on: Vesicular Stomatitis virus (VSV); conditions: Chen et al., Virology 276 (2000); cited from earlier work
# [6] = tested on: LLC-MK2 cells infected with SeV18+SEAP/ΔF-GFP; assay: GFP expression and cell damage by fluorescence microscopy; conditions: 5 mM aspirin
# Description: LLC-MK2 (monkey kidney-derived cells) were seeded into 6-well plates at a concentration of 5×10^5 cells/well, and then cultured in MEM (Gibco-BRL, Rockville, Md.) media containing 10% fetal bovine serum (FBS: BioWhittaker, Walkersville, Md.) at 37° C. for 24 hours in a 5% CO2 incubator. Cells were washed with PBS and infected with F-deleted SeV encoding secretion-type alkaline phosphatase (SEAP)) and green fluorescence protein (GFP) genes (SeV18+SEAP/ΔF-GFP: FIG. 1) at MOI=3. […] After infection, cell culture was continued in MEM media without serum. Two days after infection, the media was replaced with MEM media (without serum) containing 0.625, 1.25, 2.5, and 5 mM of aspirin, or no aspirin. […] Heme agglutination activity (HA activity) was measured as an indicator of virion formation; lactose dehydrogenase (LDH) quantification was measured as an indicator of cell damage; and SEAP activity was measured as an indicator of the expression level of genes carried on the vector.
# GFP expression level and cell damage were also periodically observed using fluorescence microscopy.
# That is, LLC-MK2 was plated in a 6-well plate at a concentration of 5×10^5 cells/well, and incubated in MEM media containing 10% fetal bovine serum at 37° C. for 24 hours in a 5% CO2 incubator. […] The recovered culture media was analyzed for HA activity, LDH quantification, and SEAP activity. […]
# [7] = 5 mM aspirin, regardless of length of treatment
# [8] = 0.625-5 mM aspirin added two days after infection
smiles,measurement,setting,value
O=C(O)Cc1ccccc1Nc1c(Cl)cccc1Cl [Diclofenac sodium],cell damage (LDH release),[1],enhanced cell damage
same,SeV transcription and replication (HA activity),[2],suppressed SeV transcription and replication
CC(C(=O)O)c1ccc(-c2ccccc2)c(F)c1 (centres unmarked) [Flurbiprofen],cell damage (LDH release),[1],only moderately reduced cell damage
same,SeV transcription and replication (HA activity),[2],suppressed SeV transcription and replication
CC(C(=O)O)c1cccc(C(=O)c2ccccc2)c1 (centres unmarked) [Ketoprofen],cell damage (LDH release),[1],reduced cell damage
same,SeV transcription and replication (HA activity),[2],suppressed SeV transcription and replication
Cc1cccc(Nc2ccccc2C(=O)O)c1C [Mefenamic acid],cell damage (LDH release),[1],enhanced cell damage
same,SeV transcription and replication (HA activity),[2],suppressed SeV transcription and replication
COc1ccc(Cc2nccc3cc(OC)c(OC)cc23)cc1OC [Papaverin],cell damage (LDH release),[1],enhanced cell damage
same,SeV transcription and replication (HA activity),[2],suppressed SeV transcription and replication
same,Cytomegarovirus multiplication,Cytomegarovirus,suppress Cytomegarovirus multiplication
"CC(=O)Oc1ccccc1C(=O)O [aspirin, acetylsalicylic acid]",cell damage (LDH),[1]; 5 mM aspirin,Almost no cell damage was observed
same,time after end of aspirin treatment until LDH increases,[1]; [7],four
same,LDH release,[1]; [8],concentration-dependent decrease in LDH release
same,cell damage (LDH release),[1],reducing cytotoxicity
same,HA activity (virion formation),"[2]; 5 mM aspirin added two days after infection, MOI=3, LLC-MK2",suppressed the increase in HA activity
same,time after end of aspirin treatment until HA activity and virion formation increase,[2]; [7],two
same,HA activity during aspirin treatment,"[2]; 5 mM aspirin, treatment 0, 2, 4, 6 or 8 days",increase in HA activity was low during aspirin treatment
same,SeV transcription and replication (HA activity),[2],suppressed SeV transcription and replication
same,SEAP activity,[3]; 5 mM aspirin,most significant decrease in activity
same,SEAP activity,[3]; [8],concentration-dependent decrease in SEAP activity
same,estimated toxicity limit,[4],300 mg/kg
same,multiplication of VSV,[5],suppressed the multiplication of the Vesicular Stomatitis virus (VSV)
same,nature of suppression of SeV transcription and replication,[6]; after withdrawal,transient
same,GFP expression and cell damage during aspirin treatment,[6]; treatment 0-8 days,GFP expression is low and cell damage is not observed
"COc1ccc2c(c1)c(CC(=O)O)c(C)n2C(=O)c1ccc(Cl)cc1 [indomethacin, Indomethacin]",cell damage (LDH release),[1],only moderately reduced cell damage
same,SeV transcription and replication (HA activity),[2],suppressed SeV transcription and replication
O=[N+]([O-])O[C@H]1CO[C@H]2[C@@H]1OC[C@H]2O[N+](=O)[O-] [isosorbide dinitrate],SeV transcription and replication with NO-associated agents,[2],did not significantly suppress transcription and replication
O=C(NCCO[N+](=O)[O-])c1cccnc1 [nicorandil],SeV transcription and replication with NO-associated agents,[2],did not significantly suppress transcription and replication
